Several values for one entry are separate records, joined by “and”; a condition that tells them apart may be missing. Equal values may be shown once. Read-outs that look alike come from different tables or passages of the source. Some results are limits rather than exact numbers.

The target in one data set is T1, human 11β-HSD1 (Homo sapiens, UniProt P28845).
T1 construct: Human 11β-HSD1 in liver microsomes catalyzes the conversion of cortisone to cortisol; tissue Iphase (Beijing, China) H2610; host or cells: human liver microsomes (purchased)
T1 sequence (P28845 whole entry): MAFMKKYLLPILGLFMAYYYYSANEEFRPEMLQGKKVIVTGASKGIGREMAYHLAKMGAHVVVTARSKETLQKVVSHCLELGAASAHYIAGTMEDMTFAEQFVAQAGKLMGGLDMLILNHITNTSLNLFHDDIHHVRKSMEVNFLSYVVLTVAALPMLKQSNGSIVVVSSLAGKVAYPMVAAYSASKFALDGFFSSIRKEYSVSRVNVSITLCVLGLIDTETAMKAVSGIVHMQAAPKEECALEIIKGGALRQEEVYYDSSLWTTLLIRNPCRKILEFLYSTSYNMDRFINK
Nature of the data set: Human 11β-HSD1 assay in human liver microsomes (cortisone to cortisol, HPLC-MS/MS). The note with it: for IC50 / remaining activity at 100 µM: 200 nM cortisone, 15 min; for IC50: Mean ± SEM, n = 4; for Mode Action: human 11β-HSD1, judged by α and Lineweaver-Burk plot; for remaining activity at 100 µM: human, 100 µM compound, read-out: 11β-HSD1 residual activity relative to the control (DMSO). In kind it is biochemical. Here is the method:
(§1) The 11β-HSD1 activity was determined by measuring the reductive catalysis of 11keto-steroid substrates, cortisone for human 11β-HSD1 and DHC for rat 11β-HSD1, which were converted to cortisol and CORT, respectively. The 11β-HSD1 assay was carried out as previously described with a minor modification. […] At the end of the reaction, acetonitrile (200 µL, CAT#: UN1648; Sigma) and internal standard testosterone-d5 (IS, T-d5, 10 μL, Zzbio, Shanghai, China) were added to the system, the organic layer was extracted, and 10 µL was injected into the HPLC-MS/MS system to measure cortisol, or CORT, as previously described.
(§2) The amount of cortisol, or CORT, in the organic layer was determined using an Acquity UPLC equipped with a BEH C18 column (2.1 mm, 50 mm, 1.7 m) and a 0.2 mm stainless steel frit filter and an XEVO TQD triple quadrupole mass spectrometer (Waters, Milford, MA, USA), as previously described. The mobile phase was a mixture of solvents A (0.1% formic acid in water) and B (acetonitrile) combined in the following gradient program: 5–5% B (0–0.5 min), 5–95% B (0.5–1.0 min), 95–95% B (1.0–2.0 min), and 95–5% B (2.0–2.1 min). The injection volume was 6 µL, and the flow rate was 0.40 mL/min. Before the second injection, a re-equilibration period of 0.9 min was set. The temperatures were 4 °C for the sample and 40 °C for column. Mass spectrometric detection was carried out using a Waters Corporation XEVO TQD triple quadruple mass spectrometer with an ESI source. For cortisol and IS, the multiple reaction monitoring mode transitions were m/z 358.3→340.3 and m/z 237.2→194.3. Data collection and instrument control were performed using Masslynx 4.1 software (Waters Corp., Milford, MA, USA). Cortisol, or CORT, standards were prepared by dissolving them in methanol. […] The enzymatic activity obtained by measuring the conversion rate (%) of cortisone to cortisol for human 11β-HSD1 or DHC to CORT for rat 11β-HSD1 was calculated.
(§3) The time curve of the 11β-HSD1 reaction was prepared by a linear regression using GraphPad version 8.0 (GraphPad, San Diego, CA, USA). […] The lineweaver-Burk plot after linear regression was also carried out to judge the mode of action.

Another data set concerns the target T2, rat 11β-HSD1 (Rattus norvegicus, UniProt P16232).
T2 construct: Rat 11β-HSD1 in liver microsomes catalyzes the conversion of DHC to CORT; from tissue; host or cells: liver microsomes of male Sprague-Dawley rats (age 3 months), prepared in house
The data set can be described thus: Rat 11β-HSD1 assay in rat liver microsomes (DHC to CORT, HPLC-MS/MS). Type of data set: biochemical. The note with it: for remaining activity at 100 µM: read-out: 11β-HSD1 residual activity relative to the control (DMSO); for Mode Action: rat 11β-HSD1, judged by α and Lineweaver-Burk plot; for α (mixed model): rat liver 11β-HSD1. On the procedure:
The preparation of rat liver microsomes was carried out as previously reported. In this preparation procedure, rat livers were homogenized in sucrose (0.25 M) containing PBS (0.01 M, pH 7.2). […] The pellets were resuspended in cold PBS by homogenization, and the concentration of microsomal protein was determined using the Bio-Rad Protein Assay Kit (CAT#: P0010; Beyotime, Jiangsu, China) according to the manufacturer’s instructions.
as §1, §2, §3
Background: Liver microsomes are a subcellular fraction often used to study metabolism.

The conditions of data set [1]: ZINC database ref 39; cited from earlier work.
Setting [2] is: rat, 100 µM compound, 200 nM DHC, 15 min.
The mark [3] stands for this setting: substrate, human liver microsomes, Michaelis-Menten.
Where [4] appears, read: human liver microsomes, read-out: IC50.
Where [5] appears, read: substrate, rat liver microsomes, Michaelis-Menten.

T2 sequence (P16232 whole entry): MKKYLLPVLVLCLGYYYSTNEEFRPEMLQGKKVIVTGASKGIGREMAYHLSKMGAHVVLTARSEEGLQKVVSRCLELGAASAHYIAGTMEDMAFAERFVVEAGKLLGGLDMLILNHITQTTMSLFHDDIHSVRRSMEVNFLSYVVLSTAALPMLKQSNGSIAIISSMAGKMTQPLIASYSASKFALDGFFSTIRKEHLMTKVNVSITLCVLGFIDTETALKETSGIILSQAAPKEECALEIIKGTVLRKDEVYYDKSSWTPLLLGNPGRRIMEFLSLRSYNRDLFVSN

Regarding `C=CCc1cc(C(C)(C)c2ccc(O)c(CC=C)c2)ccc1O` [DABPA, 2,2′-diallyl BPA], at human 11β-HSD1, the Ki (usually the equilibrium dissociation constant of an inhibitor or competing ligand from its target) was 14 µM, the “Mode Action” value was “competitive inhibitors” and the remaining activity at 100 µM is at most 50%. For the same molecule, the IC50 (as a rule, the concentration needed to halve the response being measured) against human 11β-HSD1 (IC50, human liver microsomes) came to 13.4 ± 0.19 µM. On rat 11β-HSD1, this molecule yielded a concentration for half-maximal inhibition (IC50) of 132 ± 1.66 µM. For the same molecule, on rat 11β-HSD1 (setting [2]), the remaining activity at 100 µM was above 50%. Moreover, the LogP (usually a log measure of how a compound divides between an organic and an aqueous phase) in data set [1] is given as 4.881.

Consider `Cc1cc(C(C)(C)c2ccc(O)c(C)c2)ccc1O` [DMBPA, 2,2-bis(4-hydroxy-3-methylphenyl)propane], for which, at human 11β-HSD1, the Ki worked out at 31 µM, the “Mode Action” value is recorded as “competitive inhibitors” and the remaining activity at 100 µM was at most 50%. This molecule also gave an IC50 on human 11β-HSD1 (IC50, human liver microsomes) of 30.2 ± 0.71 µM. On rat 11β-HSD1 (setting [2]), the remaining activity at 100 µM is above 50%. Moreover, the LogP in data set [1] is 4.041 and 4.04.

Take `CC(C)(c1ccc(O)c(-c2ccccc2)c1)c1ccc(O)c(-c2ccccc2)c1` [BPH, 2,2-bis(2-hydroxy-5-biphenylyl)propane]: on human 11β-HSD1, the Ki was 0.44 µM, the “Mode Action” value is “competitive inhibitors” and the remaining activity at 100 µM was at most 50%. The IC50 against human 11β-HSD1 (IC50, human liver microsomes) was found to be 0.75 ± 0.02 µM. In addition, on rat 11β-HSD1, inhibition was half-maximal at 74.2 ± 0.98 µM (IC50), the affinity corresponds to a Ki of 74.6 µM, the “Mode Action” value is listed as “mixed/competitive inhibitors” and the “α (mixed model)” value is recorded as “∞”. Besides, on rat 11β-HSD1 (setting [2]), the remaining activity at 100 µM is at most 50%. Also, the LogP in data set [1] is reported as 6.758.

For the molecule `C[C@]12CCC(=O)C=C1CC[C@@H]1[C@@H]2C(=O)C[C@@]2(C)[C@H]1CC[C@]2(O)C(=O)CO` [cortisone, reference compound], on human 11β-HSD1 (setting [3]), the Km – broadly, the substrate concentration at which the rate is half of its maximum – amounted to 0.93 ± 0.22 µM and the maximal velocity (Vmax) (as a rule, the rate approached at saturating substrate) is given as 253.2 ± 20.5 pmol/mg/min.

On to `CC(C)c1cc(C(C)(C)c2ccc(O)c(C(C)C)c2)ccc1O` [BPG, 4,4′-(propane-2,2-diyl)bis(2-isopropylphenol)], for which, at human 11β-HSD1, the affinity, expressed as Ki, was 5.33 µM; the “Mode Action” value is “competitive inhibitors”; the remaining activity at 100 µM was at most 50%. The same molecule returned an IC50 against human 11β-HSD1 (IC50, human liver microsomes) of 5.06 ± 0.07 µM. Further, on rat 11β-HSD1, 104 ± 1.52 µM corresponded to half-maximal inhibition (IC50), the Ki was 88.6 µM, the “Mode Action” value was “mixed/competitive inhibitors” and the “α (mixed model)” value is 5.78. Further, the remaining activity at 100 µM at rat 11β-HSD1 (setting [2]) was at most 50%. Moreover, the LogP in data set [1] is 5.671.

As to `COc1ccc(C(C)(C)c2ccc(OC)cc2)cc1` [BPAME, 4,4′-(propane-2,2-diyl)bis(methoxybenzene)], at human 11β-HSD1, the “Mode Action” value is “competitive inhibitors”. Also, the half-maximal inhibitory concentration (IC50) at human 11β-HSD1 (setting [4]) stood at 33.1 ± 0.57 µM; on rat 11β-HSD1 (rat liver microsomes, 200 nM DHC, 15 min, Mean ± SEM, n = 4, read-out: IC50), 206 ± 2.16 µM. For the same molecule, the Ki at human 11β-HSD1 (human liver microsomes, enzyme kinetics-inhibition (mixed model), read-out: Ki (inhibition constant, measured)) came to 33.8 µM. Moreover, the remaining activity at 100 µM on human 11β-HSD1 was at most 50%; on rat 11β-HSD1 (setting [2]), above 50%. Moreover, the LogP in data set [1] is 4.03.

For the molecule `CC(C)(c1ccc(O)cc1)c1ccc(O)cc1` [BPA, bisphenol A, reference compound], the IC50 at human 11β-HSD1 (IC50, human liver microsomes) stood at 297 ± 2.99 µM; on rat 11β-HSD1, 36.8 ± 1.09 µM. Besides, the remaining activity at 100 µM on human 11β-HSD1 is above 50%; on rat 11β-HSD1 (setting [2]) it was at most 50%. For the same molecule, in data set [1], the LogP was 3.424 and 3.42.

Consider `C[C@]12CC(=O)[C@H]3[C@@H](CCC4=CC(=O)CC[C@@]43C)[C@@H]1CC[C@@H]2C(=O)CO` [DHC, 11-dehydrocorticosterone, reference compound], for which, on rat 11β-HSD1 (setting [5]), the Michaelis-Menten constant (Km) was determined as 0.94 ± 0.09 µM and the maximal velocity (Vmax) was determined as 1072 ± 115.5 pmol/mg/min.

Regarding `Cc1cc(C(C)(C)c2cc(C)c(O)c(C)c2)cc(C)c1O` [TMBPA, 2,2-bis(4-hydroxy-3,5-dimethylphenyl)propane], on human 11β-HSD1 (setting [4]), the half-inhibitory concentration (IC50) came to 319.2 ± 2.78 µM. On human 11β-HSD1, the remaining activity at 100 µM is above 50%. Also, the “11β-HSD1 residual activity relative to the control (DMSO)” value at rat 11β-HSD1 (setting [2]) is “ineffective”.

The record behind these values is article PMC10343216 (Molecules, 2023).
